Data on 1 compound can be found in ChEMBL document CHEMBL5338752, “Carbamate JNK3 Inhibitors Show Promise as Effective Treatments for Alzheimer's Disease: In Vivo Studies on Mouse Models” (J Med Chem, 2023).

Calls of active or inactive are those of the source. The rule behind the calls is not given here.

For data set [1], the system named is Mus musculus. Nature of the data set: Anti-alzheimer activity against triple transgenic mouse alzheimer disease model assessed as escape latency time at 30 mg/kg, po measured upto 5 days by Morris water maze test (reference value: 58.62+/-1.15 sec). It is filed as functional. The settings on record: time <= 5 day.
Data set [2] can be described thus: AUClast in sixteen hrs fasted Sprague-Dawley rat at 3 mg/kg, po measured upto 24 hrs by LC-MS/MS analysis. It is filed as ADME, organism-based. Also noted: dose 3 mg/kg, time < 24 hrs, route po. The following applies: in vivo.
For a further data set, the system named is Neuron. Nature of the data set: Neuroprotective activity against rat neuron cells assessed as inhibition of Abeta(1-42)-induced cytotoxicity by measuring increase in cell viability at 20 uM incubated for 24 hrs by MTT assay relative to control. The format is functional.
The target of data set [3] is Mitogen-activated protein kinase 10 (Homo sapiens, UniProt P53779). Description: Inhibition of JNK3 (unknown origin) using ATF2 as substrate incubated for 40 mins in presence of [gamma33P]ATP by scintillation counting analysis.
Data set [4] has as its system Mus musculus. Description: Anti-alzheimer activity against triple transgenic mouse alzheimer disease model assessed as time spent in platform quadrant at 60 mg/kg, po administered daily for 2.2 months and measured after 137 days by Morris water maze test (reference value: 12.26+/-2.34 sec). It is filed as functional. The settings on record: time 137 day.
The subject of data set [5] is Mus musculus. Nature of the data set: Anti-alzheimer activity against triple transgenic mouse alzheimer disease model assessed as spontaneous alteration at 60 mg/kg, po administered daily for 2.2 months and measured after 119 days by Y-maze test (reference value: 45.55+/-2.30%). The format is functional. The settings on record: time 119 day.
Data set [6] is described as follows: Half life in sixteen hrs fasted Sprague-Dawley rat at 3 mg/kg, po measured upto 24 hrs by LC-MS/MS analysis. The settings on record: in vivo. The format is ADME, organism-based.
The subject of data set [7] is Mus musculus. Nature of the data set: Anti-alzheimer activity against triple transgenic mouse alzheimer disease model assessed as path length at 60 mg/kg, po measured upto 5 days by Morris water maze test (reference value: 608.85+/-39.27 cm). The following applies: time <= 5 day. It is filed as functional.
The test system of data set [8] is Mus musculus. Description: Anti-alzheimer activity against triple transgenic mouse alzheimer disease model assessed as time spent in platform quadrant at 30 mg/kg, po administered daily for 2.2 months and measured after 137 days by Morris water maze test (reference value: 12.26+/-2.34 sec). The format is functional. The settings on record: time 137 day.
Data set [9] concerns the target Mitogen-activated protein kinase 10 (Rattus norvegicus) (UniProt P49187). Description: Inhibition of anisomycin induced JNK3 activation in rat cortex neuron cells assessed as inhibition of APP phosphorylation at 10 to 20 uM preincubated for 90 mins followed by anisomycin addition and measured after 40 mins by Western blot analysis. The format is cell-based. The settings on record: dose 10-20 µM. Background: A western blot detects proteins with antibodies after separation by electrophoresis.

For data set [10] the target is unchanged. Nature of the data set: Inhibition of anisomycin induced JNK3 activation in rat cortex neuron cells assessed as reduction in Jun phosphorylation levels at 10 to 20 uM preincubated for 90 mins followed by anisomycin addition and measured after 40 mins by Western blot analysis. It is filed as cell-based. The following applies: dose 10-20 µM, time 130.0 min.

A short description of data set [11]: Apparent permeability of the compound across apical side to basolateral side in human Caco-2 cells. It is filed as ADME, cell-based.
For data set [12], the target named is Mitogen-activated protein kinase 9 (Homo sapiens, UniProt P45984). Nature of the data set: Inhibition of JNK2 (unknown origin) using ATF2 as substrate incubated for 40 mins in presence of [gamma33P]ATP by scintillation counting analysis.
Sequence of Mitogen-activated protein kinase 9 (P45984 whole entry): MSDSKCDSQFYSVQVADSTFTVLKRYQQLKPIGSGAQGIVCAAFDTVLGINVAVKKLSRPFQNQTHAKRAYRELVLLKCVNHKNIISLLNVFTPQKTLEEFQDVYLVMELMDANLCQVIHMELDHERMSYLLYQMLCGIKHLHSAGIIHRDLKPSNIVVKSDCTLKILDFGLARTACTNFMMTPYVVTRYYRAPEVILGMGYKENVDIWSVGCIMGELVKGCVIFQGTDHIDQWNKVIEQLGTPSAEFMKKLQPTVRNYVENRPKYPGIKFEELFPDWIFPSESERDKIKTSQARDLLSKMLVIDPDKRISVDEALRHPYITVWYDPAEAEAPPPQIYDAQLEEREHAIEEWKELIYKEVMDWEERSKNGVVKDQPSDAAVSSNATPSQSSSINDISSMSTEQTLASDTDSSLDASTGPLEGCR

Sequence of Mitogen-activated protein kinase 10 (Rattus norvegicus) (P49187 whole entry): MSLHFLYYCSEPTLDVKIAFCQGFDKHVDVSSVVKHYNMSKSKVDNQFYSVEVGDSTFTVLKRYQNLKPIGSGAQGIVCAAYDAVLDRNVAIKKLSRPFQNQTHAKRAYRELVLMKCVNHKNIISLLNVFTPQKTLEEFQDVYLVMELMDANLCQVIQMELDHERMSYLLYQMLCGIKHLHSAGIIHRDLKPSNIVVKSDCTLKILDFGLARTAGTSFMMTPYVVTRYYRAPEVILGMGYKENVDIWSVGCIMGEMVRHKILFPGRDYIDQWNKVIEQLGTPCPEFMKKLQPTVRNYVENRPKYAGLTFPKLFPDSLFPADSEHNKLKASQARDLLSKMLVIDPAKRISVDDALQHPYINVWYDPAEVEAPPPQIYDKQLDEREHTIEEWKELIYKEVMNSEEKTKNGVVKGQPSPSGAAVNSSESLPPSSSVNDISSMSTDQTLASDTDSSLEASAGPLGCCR
Sequence of Mitogen-activated protein kinase 10 (P53779 whole entry): as the sequence (P49187 whole entry) above, with H27Q, S32Y, V33I, V34A counted along it

As for `CNC(=O)Oc1cc(F)c2nc(-c3ccc4ccccc4c3)n(-c3ccnc(N[C@H]4CCCN(C(=O)C5CC5)C4)n3)c2c1`, the Time with Mus musculus [1] is 26.61 s; with Mus musculus [4], 22.59 s; in the data set on Mus musculus [8] it was 23.4 s. The AUC(0-t) at 24 h in data set [2] was 727 ng·h/mL. The Activity was found to be 47.5% in the data set with Neuron, 54.62% in the data set on Mus musculus [5] and 372.7 cm with Mus musculus [7]. The IC50 in data set [3] turned out to be 0.021 µM; in [12] it was 2.2 µM. For the same compound, the half-life in data set [6] was 58.2 min. The inhibition entry in data set [9] and in data set [10] was “Active” each time. The apical-to-basolateral permeability (Papp A→B) in [11] came to 1.7 ×10⁻⁶ cm/s.

By AUC(0-t) is commonly meant exposure summed from dosing to a finite time, without extrapolation to infinity. A low value points to less exposure. One may read the IC50 as the point on the concentration scale where inhibition reaches its midpoint. The half-life is how long it takes for the measured level to halve. What is called Papp A→B is how fast a substance crosses the layer from the apical side.
